Measured values published in ChEMBL document CHEMBL5376011, “Discovery of Anti-Hypercholesterolemia Agents Targeting LXRα from Marine Microorganism-Derived Natural Products” (J Nat Prod, 2024).
pKd: −log10 of the molar value. Active and inactive are the calls of the source.

Experiments:
Mus musculus [1] = assay: Antihypercholesterolemic activity against high cholesterol diet fed LXRalpha knockout C57BL/6J mouse assessed as upregulation in ABCA1 protein level at 300 microg/kg, ip administered every 2 days for 15 days by Western blot analysis; assay type: functional, organism-based; details: dose 300.0 µg/kg, time 15.0 day
[2] = target: T1, Oxysterols receptor LXR-alpha (Homo sapiens, UniProt Q13133); assay: Binding affinity to full length human LXRalpha assessed as dissociation constant by SPR analysis
T1 sequence (Q13133 whole entry): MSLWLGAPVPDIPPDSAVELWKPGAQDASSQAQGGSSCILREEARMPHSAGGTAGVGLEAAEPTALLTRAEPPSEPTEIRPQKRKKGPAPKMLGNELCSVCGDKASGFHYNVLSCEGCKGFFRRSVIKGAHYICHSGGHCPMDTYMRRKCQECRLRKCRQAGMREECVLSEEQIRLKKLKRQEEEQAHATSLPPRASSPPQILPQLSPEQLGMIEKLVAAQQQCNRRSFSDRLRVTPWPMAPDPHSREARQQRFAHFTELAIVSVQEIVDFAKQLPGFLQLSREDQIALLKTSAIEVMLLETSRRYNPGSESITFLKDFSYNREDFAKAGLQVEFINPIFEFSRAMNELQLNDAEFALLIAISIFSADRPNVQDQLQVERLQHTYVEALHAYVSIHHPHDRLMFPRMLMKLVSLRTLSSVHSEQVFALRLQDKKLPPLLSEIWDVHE

Mus musculus [3] = assay: Antihypercholesterolemic activity against high cholesterol diet induced C57BL/6J mouse assessed as reduction in hepatocyte damage at 300 microg/kg, ip administered every 2 days for 15 days; assay type: functional, organism-based; details: dose 300.0 µg/kg, time 15.0 day
[4] = target: T2, Oxysterols receptor LXR-alpha (Homo sapiens) (UniProt Q13133); assay: Agonist activity at LXRalpha in human HepG2 cells assessed as upregulation of CYP7A1 mRNA expression by measuring fold change at 25 uM incubated for 24 hrs by RT-qPCR analysis; assay type: cell-based; details: filed as agonist
T2 sequence (whole entry): T1 sequence (Q13133 whole entry)

Mus musculus [5] = assay: Antihypercholesterolemic activity against high cholesterol diet induced C57BL/6J mouse assessed as reduction in total cholesterol level in plasma at 300 microg/kg, ip administered every 2 days for 15 days; assay type: functional, organism-based; details: dose 300.0 µg/kg, time 15.0 day
Mus musculus [6] = assay: Antihypercholesterolemic activity against high cholesterol diet fed C57BL/6J mouse assessed as improvement in hepatocyte liposis at 300 microg/kg, ip administered every 2 days for 15 days by H&E staining based analysis; assay type: functional, organism-based; details: dose 300.0 µg/kg, time 15.0 day
Mus musculus [7] = assay: Antihypercholesterolemic activity against high cholesterol diet fed LXRalpha knockout C57BL/6J mouse assessed as reduction in serum low density lipoprotein cholesterol level at 300 microg/kg, ip administered every 2 days for 15 days; assay type: functional, organism-based; details: dose 300.0 µg/kg, time 15.0 day
Mus musculus [8] = assay: Antihypercholesterolemic activity against high cholesterol diet fed C57BL/6J mouse assessed as reduction in FASN protein level at 300 microg/kg, ip administered every 2 days for 15 days by Western blot analysis; assay type: functional, organism-based; details: dose 300.0 µg/kg, time 15.0 day
Mus musculus [9] = assay: Antihypercholesterolemic activity against high cholesterol diet fed C57BL/6J mouse assessed as reduction in SREBP1 protein level at 300 microg/kg, ip administered every 2 days for 15 days by Western blot analysis; assay type: functional, organism-based; details: dose 300.0 µg/kg, time 15.0 day
[10] = target: T2, Oxysterols receptor LXR-alpha (Homo sapiens); assay: Agonist activity at LXRalpha in human HepG2 cells assessed as upregulation of ABCA1 mRNA expression by measuring fold change at 25 uM incubated for 24 hrs by RT-qPCR analysis; assay type: cell-based; details: filed as agonist
Mus musculus [11] = assay: Antihypercholesterolemic activity against high cholesterol diet fed LXRalpha knockout C57BL/6J mouse assessed as improvement in hepatocellular degeneration at 300 microg/kg, ip administered every 2 days for 15 days by Oil red staining based analysis; assay type: functional, organism-based; details: dose 300.0 µg/kg, time 15.0 day
Mus musculus [12] = assay: Antihypercholesterolemic activity against high cholesterol diet fed LXRalpha knockout C57BL/6J mouse assessed as improvement in hepatocellular degeneration at 300 microg/kg, ip administered every 2 days for 15 days by H&E staining based analysis; assay type: functional, organism-based; details: dose 300.0 µg/kg, time 15.0 day
Mus musculus [13] = assay: Antihypercholesterolemic activity against high cholesterol diet fed C57BL/6J mouse assessed as reduction of fine vacuoles in the cytoplasm at 300 microg/kg, ip administered every 2 days for 15 days by H&E staining based analysis; assay type: functional, organism-based; details: dose 300.0 µg/kg, time 15.0 day
Mus musculus [14] = assay: Antihypercholesterolemic activity against high cholesterol diet induced C57BL/6J mouse assessed as reduction in serum aspartate aminotransferase level at 300 microg/kg, ip administered every 2 days for 15 days; assay type: functional, organism-based; details: dose 300.0 µg/kg, time 15.0 day
[15] = Cytotoxicity against human HepG2 cells assessed as reduction in cell viability incubated for 24 hrs by CCK8 assay; assay type: toxicity, cell-based
Mus musculus [16] = assay: Antihypercholesterolemic activity against high cholesterol diet fed LXRalpha knockout C57BL/6J mouse assessed as improvement in liver lipid droplet accumulation at 300 microg/kg, ip administered every 2 days for 15 days by Oil red staining based analysis; assay type: functional, organism-based; details: dose 300.0 µg/kg, time 15.0 day
Mus musculus [17] = assay: Antihypercholesterolemic activity against high cholesterol diet fed LXRalpha knockout C57BL/6J mouse assessed as reduction in serum alanine aminotransferase level at 300 microg/kg, ip administered every 2 days for 15 days; assay type: functional, organism-based; details: dose 300.0 µg/kg, time 15.0 day
HepG2 [18] = assay: Improvement of lipid metabolism in palmitic acid and oleic acid induced human HepG2 cell model of hepatic steatosis assessed as reduction in lipid droplets at 25 uM preincubated with palmitic acid and oleic acid for 48 hrs followed by compound addition and measured after 24 hrs by Oil Red O staining based analysis; assay type: functional
HepG2 [19] = assay: Improvement of lipid metabolism in palmitic acid and oleic acid induced human HepG2 cell model of hepatic steatosis assessed as reduction in triglyceride level at 25 uM preincubated with palmitic acid and oleic acid for 48 hrs followed by compound addition and measured after 24 hrs; assay type: functional, cell-based
HepG2 [20] = assay: Effect on LXRbeta mRNA expression in human HepG2 cells at 25 uM incubated for 24 hrs by RT-qPCR analysis; assay type: functional, cell-based
Mus musculus [21] = assay: Antihypercholesterolemic activity against high cholesterol diet fed C57BL/6J mouse assessed as reduction in hepatocyte lysis necrosis at 300 microg/kg, ip administered every 2 days for 15 days by Oil red staining based analysis; assay type: functional, organism-based; details: dose 300.0 µg/kg, time 15.0 day
Mus musculus [22] = assay: Antihypercholesterolemic activity against high cholesterol diet fed C57BL/6J mouse assessed as improvement in hepatocyte degeneration at 300 microg/kg, ip administered every 2 days for 15 days by H&E staining based analysis; assay type: functional, organism-based; details: dose 300.0 µg/kg, time 15.0 day

COc1ccc2c3c([nH]c2c1)[C@H](C=C(C)C)N1C(=O)[C@@H]2CCCN2C(=O)[C@]1(O)[C@H]3O
5.02: fold change (FC) [4]
> 50000 nM: IC50 at 24 h [15]
active: Activity (Mus musculus [3]) | Activity (Mus musculus [5]) | Activity (Mus musculus [6]) | Activity (Mus musculus [8]) | Activity (Mus musculus [9]) | Activity (Mus musculus [11]) | Activity (Mus musculus [12]) | Activity (Mus musculus [13]) | Activity (Mus musculus [14]) | Activity (Mus musculus [16]) | Activity (HepG2 [18]) | Activity (HepG2 [19]) | Activity (Mus musculus [21]) | Activity (Mus musculus [22])
8.25: pKd [2]
2.13: fold change (FC) [10]
inactive: Activity (Mus musculus [1]) | Activity (Mus musculus [7]) | Activity (Mus musculus [17]) | Activity (HepG2 [20])
